Assay results as given in US20260209249A1, “NOVEL TRICYCLIC COMPOUND AS KRAS G12D INHIBITOR, AND USE THEREOF” (SK Biopharmaceuticals Co., priority 2022, published 2026).

Experiments:
[1] = target: T1, GDP-KRAS G12D mutant protein (Homo sapiens, UniProt P01116, G12D); assay: Differential scanning fluorimetry (DSF) binding affinity to GDP-KRAS G12D mutant protein; conditions: DSF thermal shift, 10 μM compound, 4 μg KRAS protein
T1 construct: purchased Daegu Gyeongbuk Medical Innovation Foundation (DGMIF), made to order
Procedure: (§1) Test Example 1: Measurement of Binding Affinity to KRAS G12D Mutant Protein The binding affinities of the compounds according to one embodiment of the present application to the KRAS G12D mutant protein were evaluated using differential scanning fluorimetry (DSF). Differential scanning fluorimetry (DSF) is a method used to study the stability of a protein upon binding to a compound. The experiment can be performed using a real-time PCR (RT-PCR) instrument, and is commonly employed as a screening technique for small-molecule compounds targeting specific proteins. As the temperature increases, folded proteins begin to unfold, during which a hydrophobic dye such as SYPRO Orange binds to the exposed hydrophobic regions of the protein, resulting in a measurable increase in fluorescence intensity (maximum absorption at 470 nm and maximum emission at 570 nm). Protein-compound binding is determined by the difference in the melting temperature (Tm) of the protein in the presence of the compound compared to the Tm in the absence of the compound, expressed as ΔTm. The binding affinity to the KRAS G12D mutant protein was measured using the Protein Thermal Shift Dye kit (#4461146, Applied Biosystems). The GDP-KRAS G12D mutant protein and GppNHp-KRAS G12D mutant protein used in the experiment were recombinant proteins synthesized by the Daegu Gyeongbuk Medical Innovation Foundation (DGMIF) upon request. The analysis of binding between the compound and the KRAS G12D mutant protein was performed according to the following reaction recipe: each test sample contained 4 μg of KRAS protein, 10 μM of the compound, and 2×SYPRO Orange dye. For the GDP-KRAS G12D protein samples, the buffer provided with the Protein Thermal Shift Dye kit was used, while for the GppNHp-KRAS G12D protein samples, 50 mM HEPES (pH 7.5) buffer was used. For the protein-compound binding reaction, the compound was added to the KRAS G12D mutant protein and reacted at room temperature for 30 minutes, followed by the addition of 2×SYPRO Orange dye. The temperature was increased to 25° C.-99° C. (0.05° C./s) using QuantStudiol RT-PCR instrument (Applied Biosystems), and fluorescence was measured using a ROX reporter with filters of 580±10 nm (excitation)/623±14 nm (emission). The measurements obtained at a compound concentration of 10 μM were analyzed using the Protein Thermal Shift Software program (version v1.4, Thermo Fisher Scientific), and the ΔTm (° C.) values, which indicate the binding affinity of the compound to the KRAS G12D mutant protein, were calculated. The DSF measurement results for the compounds according to one embodiment of the present application with respect to the KRAS G12D mutant protein are shown in Table 2.

[2] = target: T2, GppNHp-KRAS G12D mutant protein (Homo sapiens, UniProt P01116, G12D); assay: Differential scanning fluorimetry (DSF) binding affinity to GppNHp-KRAS G12D mutant protein; conditions: DSF thermal shift, 10 μM compound, 4 μg KRAS protein, 50 mM HEPES (pH 7.5)
T2 construct: purchased Daegu Gyeongbuk Medical Innovation Foundation (DGMIF), made to order
Procedure: as §1

| Compound | GDP-KRAS G12D (ΔTmD, ° C.) [1] [°C] | GppNHp-KRAS G12D (ΔTmD, ° C.) [2] [°C] |
| --- | --- | --- |
| C#Cc1c(F)ccc2cc(O)cc(-c3cc4nc(OC[C@]56CC(=C)CN5C[C@@H](F)C6)nc(N5C[C@H]6CC[C@@H](C5)N6)c4n4ccnc34)c12 [Example 32, 4-(1-((1R,5S)-3,8-diazabicyclo[3.2.1]octan-3-yl)-3-(((2S,7aR)-2-fluoro-6-methylenetetrahydro-1H-pyrrolizin-7a(5H)-yl)methoxy)imidazo[1′,2′:1,6]pyrido[3,2-d]pyrimidin-6-yl)-5-ethynyl-6-fluoronaphthalen-2-ol] | 9.05 | 4.04 |
| C#Cc1c(F)ccc2cc(O)cc(-c3cc4nc(OCC5(CN6CCC[C@H](F)C6)CC5)nc(N5[C@@H]6CC[C@H]5CNC6)c4n4ccnc34)c12 [Example 19, 4-(1-((1R,5S)-3,8-diazabicyclo[3.2.1]octan-8-yl)-3-((1-(((S)-3-fluoropiperidin-1-yl)methyl)cyclopropyl)methoxy)imidazo[1′,2′:1,6]pyrido[3,2-d]pyrimidin-6-yl)-5-ethynyl-6-fluoronaphthalen-2-ol] | 7.68 | 3.82 |
| C#Cc1c(F)ccc2cc(O)cc(-c3c(F)c4nc(OC[C@@]56CCCN5C[C@H](F)C6)nc(N5[C@@H]6CC[C@H]5CNC6)c4c4cn(C)nc34)c12 [Example 103, 4-(9-((1 R,5S)-3,8-diazabicyclo[3.2.1]octan-8-yl)-5-fluoro-7-(((2R,7aS)-2-fluorotetrahydro-1H-pyrrolizin-7a(5H)-yl)methoxy)-2-methyl-2H-pyrazolo[4,3-n]quinazolin-4-yl)-5-ethynyl-6-fluoronaphthalen-2-ol] | 14.80 | 11.59 |
| C#Cc1c(F)ccc2cc(O)cc(-c3cc4nc(OC[C@@]56CCCN5CC(=C(F)F)C6)nc(N5[C@@H]6CC[C@H]5CNC6)c4n4ccnc34)c12 [Example 106, 4-(1-((1 R,5S)-3,8-diazabicyclo[3.2.1]octan-8-yl)-3-(((S)-2-(difluoromethylene)tetrahydro-1H-pyrrolizin-7a(5H)-yl)methoxy)imidazo[1′,2′:1,6]pyrido[3,2-d]pyrimidin-6-yl)-5-ethynyl-6-fluoronaphthalen-2-ol] | 10.21 | 6.65 |
| CCc1c(F)ccc2cc(O)cc(-c3cc4nc(OC[C@@]56CCCN5C[C@H](F)C6)nc(NCC5(N(C)C)CCC5)c4n4ccnc34)c12 [Example 4, 4-(1-(((1-(dimethylamino)cyclobutyl)methyl)amino)-3-(((2R,7aS)-2-fluorotetrahydro-1H-pyrrolizin-7a(5H)-yl)methoxy)imidazo[1′,2′:1,6]pyrido[3,2-d]pyrimidin-6-yl)-5-ethyl-6-fluoronaphthalen-2-ol] | 1.90 | 0.57 |
| CCc1c(F)ccc2cc(O)cc(-c3cc4nc(OC[C@@]56CCCN5CC(=C(F)F)C6)nc(N5[C@@H]6CC[C@H]5CNC6)c4n4ccnc34)c12 [Example 107, 4-(1-((1 R,5S)-3,8-diazabicyclo[3.2.1]octan-8-yl)-3-(((S)-2-(difluoromethylene)tetrahydro-1H-pyrrolizin-7a(5H)-yl)methoxy)imidazo[1′,2′:1,6]pyrido[3,2-d]pyrimidin-6-yl)-5-ethyl-6-fluoronaphthalen-2-ol] | 8.91 | 4.32 |
| Cc1cc(N)nc(-c2cc3nc(OC[C@@]45CCCN4C[C@H](F)C5)nc(N4[C@@H]5CC[C@H]4CNC5)c3n3ccnc23)c1C(F)(F)F [Example 20, 6-(1-((1R,5S)-3,8-diazabicyclo[3.2.1]octan-8-yl)-3-(((2R,7aS)-2-fluorotetrahydro-1H-pyrrolizin-7a(5H)-yl)methoxy)imidazo[1′,2′:1,6]pyrido[3,2-d]pyrimidin-6-yl)-4-methyl-5-(trifluoromethyl)pyridin-2-amine] | −0.17 | 0.27 |
